Source: publication PMC9820167, “Design and Synthesis of Conformationally Flexible Scaffold as Bitopic Ligands for Potent D3-Selective Antagonists” (International Journal of Molecular Sciences, 2022)
Read-outs that look alike come from different tables or passages of the source.

Assays:
[1] = molecular target: T1, Serotonin transporter (SERT) (Homo sapiens, UniProt P31645); test: PDSP binding screen; conditions: for Ki: PDSP, HCl salts; for inhibition at 10 µM: read-out: Ki (nM) or % inhibition at 10 µM: Serotonin transporter (SERT)
T1 construct: Psychoactive Drug Screening Program (PDSP)
From the text: (§1) Based on the results in the dopamine receptor radioligand binding assays, nine flexible-based compounds were selected for further evaluation for off-target binding with other GPCRs through the Psychoactive Drug Screening Program (PDSP) (Supplemental Table S2). […] For example, many of the N-aryl piperazine-based analogs that our group developed in the past for either the D2 or D3 receptor had high affinity for the 5-HT1A receptor [55, 56, 57, 58]. […] This mitochondrial-based protein is typically used as a target for imaging neuroinflammation. The results of the PDSP-binding assays also confirmed the data obtained in our lab for the binding of this panel of nine compounds to D2 and D3 receptors (Supplemental Table S2).

Serotonin 5-HT1E = molecular target: T2, Serotonin 5-HT1E (Homo sapiens, UniProt P28566); test: PDSP binding screen; conditions: read-out: Ki (nM) or % inhibition at 10 µM: 5-HT1E
T2 construct: Psychoactive Drug Screening Program (PDSP)
From the text: as §1

Serotonin 5-HT5A = molecular target: T3, Serotonin 5-HT5A (Homo sapiens, UniProt P47898); test: PDSP binding screen; conditions: read-out: Ki (nM) or % inhibition at 10 µM: 5-HT5A
T3 construct: Psychoactive Drug Screening Program (PDSP)
From the text: as §1

Opioid DOR = molecular target: T4, Opioid DOR (Homo sapiens, UniProt P41143); test: PDSP binding screen; conditions: read-out: Ki (nM) or % inhibition at 10 µM: DOR
T4 construct: Psychoactive Drug Screening Program (PDSP)
From the text: as §1

human D2 receptors = molecular target: T5, human D2 receptors (Homo sapiens, UniProt P14416); test: Radioligand binding assay with [125I]IABN, D2 receptor
T5 construct: expressed in transfected cells; host or cells: HEK293
Experimental: Two different assays were used to evaluate the properties of the analogs described above. The receptor binding affinity was measured by radioligand binding assays using [^125I]IABN with D2 or D3 receptors highly expressed HEK293 cells. The functional activity of the analogs was determined using a β-arrestin recruitment assay. […] The results of the antagonist mode assay are reported as IC50 values.
Ki values for D2 and D3 receptors were measured using [^125I]IABN in human D2 and D3 receptors expressed in HEK cells, respectively. A filtration binding assay was used to characterize membrane-associated receptor binding properties. The details for the procedures were described in the literature.

Dopamine D2 = Dopamine D2 (Homo sapiens, UniProt P14416); test: PDSP binding screen
[2] = molecular target: Dopamine active transporter (DAT) (Homo sapiens, UniProt Q01959); test: PDSP binding screen
Muscarinic M5 = molecular target: T6, Muscarinic M5 (Homo sapiens, UniProt P08912); test: PDSP binding screen; conditions: for inhibition at 10 µM: read-out: Ki (nM) or % inhibition at 10 µM: M5
T6 sequence (P08912 1-532): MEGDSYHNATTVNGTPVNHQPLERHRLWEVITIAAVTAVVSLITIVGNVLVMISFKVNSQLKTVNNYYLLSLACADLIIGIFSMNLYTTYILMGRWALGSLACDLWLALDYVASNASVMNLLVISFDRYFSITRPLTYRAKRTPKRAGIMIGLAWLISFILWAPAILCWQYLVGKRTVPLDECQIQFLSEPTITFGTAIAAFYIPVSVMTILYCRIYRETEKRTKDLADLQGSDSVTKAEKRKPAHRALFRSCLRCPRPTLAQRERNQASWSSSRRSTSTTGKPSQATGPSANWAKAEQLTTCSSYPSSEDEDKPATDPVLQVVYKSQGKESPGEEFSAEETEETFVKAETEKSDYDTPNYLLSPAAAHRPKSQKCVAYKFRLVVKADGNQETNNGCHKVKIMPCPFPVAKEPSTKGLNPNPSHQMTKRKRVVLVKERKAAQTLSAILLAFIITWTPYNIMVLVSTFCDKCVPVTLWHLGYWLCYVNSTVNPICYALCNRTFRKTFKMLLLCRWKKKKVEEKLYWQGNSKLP

Adrenergic alpha2A = molecular target: T7, Adrenergic alpha2A (Homo sapiens, UniProt P08913); test: PDSP binding screen
T7 sequence (P08913 1-465): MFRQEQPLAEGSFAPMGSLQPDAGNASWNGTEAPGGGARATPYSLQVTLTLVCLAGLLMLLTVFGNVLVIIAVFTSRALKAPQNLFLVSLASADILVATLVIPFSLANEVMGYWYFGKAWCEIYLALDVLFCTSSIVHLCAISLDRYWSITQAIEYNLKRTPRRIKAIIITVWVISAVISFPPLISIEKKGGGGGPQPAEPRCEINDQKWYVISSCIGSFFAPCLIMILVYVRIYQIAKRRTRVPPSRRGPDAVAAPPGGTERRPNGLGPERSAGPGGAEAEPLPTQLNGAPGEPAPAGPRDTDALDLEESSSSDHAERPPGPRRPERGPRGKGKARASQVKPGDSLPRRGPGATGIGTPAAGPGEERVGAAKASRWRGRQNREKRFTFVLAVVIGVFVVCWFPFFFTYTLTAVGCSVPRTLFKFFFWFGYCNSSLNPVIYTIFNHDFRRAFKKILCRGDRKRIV

[3] = [125I]IABN, D2 receptors expressed in HEK cells, mean ± SEM, three experiments, HCl salts, read-out: Ki ± SEM (nM) D2

T4 sequence (P41143 whole entry): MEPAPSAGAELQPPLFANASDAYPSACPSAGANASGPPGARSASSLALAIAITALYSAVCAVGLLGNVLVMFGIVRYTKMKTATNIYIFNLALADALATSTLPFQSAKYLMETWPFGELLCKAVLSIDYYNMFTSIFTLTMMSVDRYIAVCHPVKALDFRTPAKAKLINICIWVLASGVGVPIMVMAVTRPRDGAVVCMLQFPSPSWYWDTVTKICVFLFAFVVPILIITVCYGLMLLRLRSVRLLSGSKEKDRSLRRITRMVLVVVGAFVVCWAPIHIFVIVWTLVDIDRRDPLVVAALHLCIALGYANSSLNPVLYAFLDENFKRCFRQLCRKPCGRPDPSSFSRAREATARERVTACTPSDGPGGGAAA
T1 sequence (P31645 whole entry, species assumed): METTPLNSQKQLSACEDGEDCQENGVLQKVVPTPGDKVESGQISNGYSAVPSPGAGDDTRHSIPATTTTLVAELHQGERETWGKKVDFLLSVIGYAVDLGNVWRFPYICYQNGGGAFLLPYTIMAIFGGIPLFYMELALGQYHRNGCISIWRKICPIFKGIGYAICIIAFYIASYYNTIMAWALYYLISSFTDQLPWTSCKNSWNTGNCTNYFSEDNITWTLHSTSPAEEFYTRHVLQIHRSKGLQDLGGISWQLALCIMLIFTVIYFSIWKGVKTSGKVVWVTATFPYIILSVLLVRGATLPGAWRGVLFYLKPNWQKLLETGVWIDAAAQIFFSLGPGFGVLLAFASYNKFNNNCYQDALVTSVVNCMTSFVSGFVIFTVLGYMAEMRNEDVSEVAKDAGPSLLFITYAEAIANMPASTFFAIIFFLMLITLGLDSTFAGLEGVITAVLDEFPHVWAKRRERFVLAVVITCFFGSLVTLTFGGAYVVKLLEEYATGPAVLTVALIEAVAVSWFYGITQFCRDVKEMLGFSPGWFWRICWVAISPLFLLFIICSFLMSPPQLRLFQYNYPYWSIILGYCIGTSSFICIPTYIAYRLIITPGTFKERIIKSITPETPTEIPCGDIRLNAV
T3 sequence (P47898 whole entry): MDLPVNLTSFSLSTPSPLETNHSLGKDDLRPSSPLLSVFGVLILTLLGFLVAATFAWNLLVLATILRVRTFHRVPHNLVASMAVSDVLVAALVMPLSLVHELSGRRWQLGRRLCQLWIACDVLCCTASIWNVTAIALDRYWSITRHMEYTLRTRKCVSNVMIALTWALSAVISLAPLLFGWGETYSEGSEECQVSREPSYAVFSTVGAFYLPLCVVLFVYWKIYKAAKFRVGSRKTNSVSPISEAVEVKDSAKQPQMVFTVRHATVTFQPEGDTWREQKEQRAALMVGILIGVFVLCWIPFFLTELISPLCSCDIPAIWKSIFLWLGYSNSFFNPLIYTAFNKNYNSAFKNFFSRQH
T2 sequence (P28566 whole entry): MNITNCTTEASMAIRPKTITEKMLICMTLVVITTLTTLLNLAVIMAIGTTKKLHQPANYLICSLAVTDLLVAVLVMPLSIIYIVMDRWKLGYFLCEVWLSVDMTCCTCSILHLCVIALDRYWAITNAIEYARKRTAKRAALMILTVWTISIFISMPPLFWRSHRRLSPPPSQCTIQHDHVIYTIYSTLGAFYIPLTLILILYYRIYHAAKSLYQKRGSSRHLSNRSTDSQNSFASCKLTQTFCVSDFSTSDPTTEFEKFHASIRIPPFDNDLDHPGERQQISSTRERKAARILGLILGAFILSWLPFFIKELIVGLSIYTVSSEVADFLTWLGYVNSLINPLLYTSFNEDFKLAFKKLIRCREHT
Sequence of Dopamine active transporter (DAT) (Q01959 whole entry, species assumed): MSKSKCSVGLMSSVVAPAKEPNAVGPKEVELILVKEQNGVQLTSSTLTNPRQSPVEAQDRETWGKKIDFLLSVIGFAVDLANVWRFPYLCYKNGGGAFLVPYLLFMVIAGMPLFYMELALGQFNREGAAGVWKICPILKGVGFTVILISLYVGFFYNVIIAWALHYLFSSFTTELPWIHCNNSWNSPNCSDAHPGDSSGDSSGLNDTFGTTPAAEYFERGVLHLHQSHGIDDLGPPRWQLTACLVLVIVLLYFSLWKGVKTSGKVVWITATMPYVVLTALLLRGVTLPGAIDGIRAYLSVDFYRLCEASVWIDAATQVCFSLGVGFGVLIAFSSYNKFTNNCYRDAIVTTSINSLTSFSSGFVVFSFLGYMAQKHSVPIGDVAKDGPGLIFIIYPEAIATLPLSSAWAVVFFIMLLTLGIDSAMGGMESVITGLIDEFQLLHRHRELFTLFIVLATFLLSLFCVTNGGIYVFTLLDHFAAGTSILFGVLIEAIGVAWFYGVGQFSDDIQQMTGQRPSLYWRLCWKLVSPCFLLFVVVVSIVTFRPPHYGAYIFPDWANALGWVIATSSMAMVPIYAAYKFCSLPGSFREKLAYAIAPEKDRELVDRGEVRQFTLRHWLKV
Sequence of Dopamine D2 (P14416 whole entry): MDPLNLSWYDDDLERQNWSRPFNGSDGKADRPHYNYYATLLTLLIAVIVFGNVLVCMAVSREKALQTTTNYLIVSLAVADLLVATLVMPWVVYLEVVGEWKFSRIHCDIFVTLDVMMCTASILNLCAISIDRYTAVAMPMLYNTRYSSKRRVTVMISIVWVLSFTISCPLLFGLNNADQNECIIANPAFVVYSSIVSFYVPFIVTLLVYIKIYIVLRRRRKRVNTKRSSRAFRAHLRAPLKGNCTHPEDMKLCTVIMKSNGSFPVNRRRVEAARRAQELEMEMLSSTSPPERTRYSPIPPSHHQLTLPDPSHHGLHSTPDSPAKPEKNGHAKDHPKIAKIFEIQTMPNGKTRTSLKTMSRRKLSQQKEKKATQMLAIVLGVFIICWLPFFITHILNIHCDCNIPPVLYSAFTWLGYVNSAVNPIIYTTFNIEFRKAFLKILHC
T5 sequence (P14416 whole entry): as above

`CCCN(CCCNC(=O)c1ccc(-c2cccs2)cc1)CCNC(=O)c1cc(Br)cc(OC)c1OC` [20a, 5-Bromo-2,3-dimethoxy-N-(2-(propyl(3-(4-(thiophen-2-yl)benzamido)propyl)amino)ethyl)benzamide] was tested, and the Ki [1] was 5850 nM, the inhibition at 10 µM (Serotonin 5-HT1E; PDSP, HCl salts) was under 50% and the inhibition at 10 µM (Serotonin 5-HT5A; PDSP, HCl salts) was under 50%. It also gave an inhibition at 10 µM (Opioid DOR) of under 50%, a Ki (human D2 receptors; [3]) of 259 ± 23 nM and a Ki (Dopamine D2) of 185 nM. For the same compound, the Ki [2] was 511 nM, the inhibition at 10 µM (Muscarinic M5) was under 50% and the Ki (Adrenergic alpha2A) was 740 nM.
`CCN(CCCNC(=O)c1ccsc1)CCNC(=O)c1cc(Br)cc(OC)c1OC` [21i, N-(3-((2-(5-Bromo-2,3-dimethoxybenzamido)ethyl)(ethyl)amino)propyl)thiophen-e-3-carboxamide] was tested, and the inhibition at 10 µM [1] was under 50%, the inhibition at 10 µM (Serotonin 5-HT1E; PDSP, HCl salts) was under 50% and the inhibition at 10 µM (Serotonin 5-HT5A; PDSP, HCl salts) was under 50%. For the same compound, the inhibition at 10 µM (Opioid DOR; PDSP, HCl salts) was under 50%, the Ki (human D2 receptors; [3]) was 304 ± 7 nM and the Ki (Dopamine D2) was 40 nM. The Ki [2] was 289 nM, the inhibition at 10 µM (Muscarinic M5) was under 50% and the Ki (Adrenergic alpha2A) was 3340 nM.
In the case of `CCN(CCCNC(=O)c1ccc(-c2cccs2)cc1)CCNC(=O)c1cc(Br)cc(OC)c1OC` [9a, 5-Bromo-N-(2-(ethyl(3-(4-(thiophen-2-yl)benzamido)propyl)amino)ethyl)-2,3-dimethoxybenzamide], the inhibition at 10 µM [1] is reported as under 50%, the inhibition at 10 µM (Serotonin 5-HT1E) is reported as under 50% and the inhibition at 10 µM (Serotonin 5-HT5A) is reported as under 50%. It also gave an inhibition at 10 µM (Opioid DOR) of under 50%, a Ki (human D2 receptors) of 169 ± 4 nM and a Ki (Dopamine D2) of 232 nM. For the same compound, the Ki [2] was 87 nM, the Ki (Muscarinic M5) was 5040 nM and the Ki (Adrenergic alpha2A) was 1350 nM.
`CCN(CCCNC(=O)c1cc2ccccc2[nH]1)CCNC(=O)c1cc(Br)cc(OC)c1OC` [21d, N-(3-((2-(5-Bromo-2,3-dimethoxybenzamido)ethyl)(ethyl)amino)propyl)-1H-indole-2-carboxamide] was tested, and the inhibition at 10 µM [1] was under 50%, the inhibition at 10 µM (Serotonin 5-HT1E; PDSP, HCl salts) was under 50% and the inhibition at 10 µM (Serotonin 5-HT5A; PDSP, HCl salts) was under 50%. It also gave an inhibition at 10 µM (Opioid DOR) of under 50%, a Ki (human D2 receptors; [3]) of 148 ± 9 nM and a Ki (Dopamine D2) of 89 nM. For the same compound, the Ki [2] was 90 nM, the Ki (Muscarinic M5) was 4220 nM and the Ki (Adrenergic alpha2A) was 2140 nM.
`CCN(CCCNC(=O)c1ccc(-c2ccncc2)cc1)CCNC(=O)c1cc(Br)cc(OC)c1OC` [21c, 5-Bromo-N-(2-(ethyl(3-(4-(pyridin-4-yl)benzamido)propyl)amino)ethyl)-2,3-dimethoxybenzamide] was tested, and the inhibition at 10 µM [1] was under 50%, the inhibition at 10 µM (Serotonin 5-HT1E; PDSP, HCl salts) was under 50% and the inhibition at 10 µM (Serotonin 5-HT5A; PDSP, HCl salts) was under 50%. It also gave an inhibition at 10 µM (Opioid DOR; PDSP, HCl salts) of under 50%, a Ki (human D2 receptors; [3]) of 107 ± 5 nM and a Ki (Dopamine D2) of 74 nM. The Ki [2] was 57 nM, the Ki (Muscarinic M5) was 2390 nM and the Ki (Adrenergic alpha2A) was 2580 nM.
`CCN(CCCNC(=O)c1cc2ccccc2n1C)CCNC(=O)c1cc(Br)cc(OC)c1OC` [21j, N-(3-((2-(5-Bromo-2,3-dimethoxybenzamido)ethyl)(ethyl)amino)propyl)-1-methyl-1H-indole-2-carboxamide] showed a Ki [1] of 415 nM, an inhibition at 10 µM (Serotonin 5-HT1E; PDSP, HCl salts) of under 50% and an inhibition at 10 µM (Serotonin 5-HT5A) of under 50%. For the same compound, the inhibition at 10 µM (Opioid DOR) was under 50%, the Ki (human D2 receptors; [3]) was 192 ± 22 nM and the Ki (Dopamine D2) was 76 nM. It also gave a Ki [2] of 390 nM, an inhibition at 10 µM (Muscarinic M5) of under 50% and a Ki (Adrenergic alpha2A) of 3110 nM.
Compound `CCN(CCCNC(=O)c1ccc(-c2ccsc2)cc1)CCNC(=O)c1cc(Br)cc(OC)c1OC` [21g, 5-Bromo-N-(2-(ethyl(3-(4-(thiophen-3-yl)benzamido)propyl)amino)ethyl)-2,3-dimethoxybenzamide] has an inhibition at 10 µM [1] of under 50%, an inhibition at 10 µM (Serotonin 5-HT1E; PDSP, HCl salts) of under 50% and an inhibition at 10 µM (Serotonin 5-HT5A; PDSP, HCl salts) of under 50%. For the same compound, the inhibition at 10 µM (Opioid DOR) was under 50%, the Ki (human D2 receptors; [3]) was 312 ± 18 nM and the Ki (Dopamine D2) was 170 nM. For the same compound, the Ki [2] was 100 nM, the inhibition at 10 µM (Muscarinic M5) was under 50% and the Ki (Adrenergic alpha2A) was 1160 nM.
For `CCN(CCCNC(=O)c1cn2ccccc2n1)CCNC(=O)c1cc(Br)cc(OC)c1OC` [21e, N-(3-((2-(5-Bromo-2,3-dimethoxybenzamido)ethyl)(ethyl)amino)propyl)imidazo[1,2-a]pyridine-2-carboxamide], the inhibition at 10 µM [1] was under 50%, the inhibition at 10 µM (Serotonin 5-HT1E; PDSP, HCl salts) was under 50% and the inhibition at 10 µM (Serotonin 5-HT5A; PDSP, HCl salts) was under 50%. For the same compound, the inhibition at 10 µM (Opioid DOR) was under 50%, the Ki (human D2 receptors; [3]) was 142 ± 16 nM and the inhibition at 10 µM (Dopamine D2; read-out: Ki (nM) or % inhibition at 10 µM: D2) was under 50%. It also gave an inhibition at 10 µM ([2]; read-out: Ki (nM) or % inhibition at 10 µM: Dopamine active transporter (DAT)) of under 50%, an inhibition at 10 µM (Muscarinic M5) of under 50% and a Ki (Adrenergic alpha2A) of 5570 nM.
`CCN(CCCNC(=O)c1ccc2ccccc2c1)CCNC(=O)c1cc(Br)cc(OC)c1OC` [21a, N-(3-((2-(5-Bromo-2,3-dimethoxybenzamido)ethyl)(ethyl)amino)propyl)-2-naphthamide] was tested, and the Ki [1] was 3010 nM, the inhibition at 10 µM (Serotonin 5-HT1E; PDSP, HCl salts) was under 50% and the inhibition at 10 µM (Serotonin 5-HT5A; PDSP, HCl salts) was under 50%. The inhibition at 10 µM (Opioid DOR) was under 50%, the Ki (human D2 receptors; [3]) was 169 ± 12 nM and the Ki (Dopamine D2) was 216 nM. It also gave a Ki [2] of 89 nM, an inhibition at 10 µM (Muscarinic M5) of under 50% and a Ki (Adrenergic alpha2A) of 1970 nM.
